Source: patent publication US7982049B2, “α-form or β-form crystal of acetanilide derivative” (Astellas Pharma Inc., priority 2001, dated 2011)
“Also recorded” adds a separate entry of the source. Structures can show the parent of a compound that is named as a salt.

Assays:
[1] = Hygroscopicity test (VTI SGA-100); assay type: physicochemical; details: for hygroscopicity (in words): 5 to 95% of relative humidity; for stability of the crystal (in words): judged with the hygroscopicity result; for relative humidity from which an increase in the weight is observed: measurement interval 5% of relative humidity
Method: The hygroscopicity was measured using VTI SGA-100 under the following conditions. Temperature: 25° C., measurement range: from 5 to 95% of relative humidity, measurement interval: 5% of relative humidity.

Male kk mice = assay: Hypoglycemic test in kk mice (insulin resistance model: obesity and hyperglycemia); assay type: in vivo; details: oral, once daily for 7 days, blood glucose 15 to 18 hours after final administration, n=6
Method: Hypoglycemic Test in kk Mice (Insulin Resistance Model: Obesity and Hyperglycemia) Male kk mice (blood glucose level: 200 mg/dL or more) were measured for blood glucose level under feeding and then randomly classified into groups. The drug to be tested was compulsorily orally administered once daily for 7 days, and the blood glucose level after 15 to 18 hours from the final administration was compared with that before the administration (n=6). The blood was collected from a tail vein of the mouse using a glass capillary (previously treated with heparin), a protein was removed therefrom, and the amount of glucose in the supernatant (mg/dL) was measured by colorimetric determination by means of the glucose oxidase method. Further, a dose by which the blood glucose level was reduced by 30% as compared with that before the administration of the drug to be tested was expressed as an ED30 value.

[2] = Solubility in recrystallization solvent; assay type: physicochemical; details: 37% to 50% ethanol aqueous solution, as compared with the α-form crystal
[3] = 25° C., listed as (R)-2-(2-aminothiazol-1-4-yl)-4′-[2-[(2-hydroxy-2-phenylethyl)amino]ethyl]-aceta, dihydrochloride

| moisture-holding amount ([1]; 25° C., over the entire range of relative humidity from 5% to 95%) | hygroscopicity (in words) ([1]; 25° C., dihydrochloride) | hygroscopicity (in words) [1, 3] | hygroscopicity (in words) ([1]; 25° C., listed as (R)-2-(2-aminothiazol-4-yl)-4′-[2-[(2-hydroxy-2-phenylethyl)amino]ethyl]-acetani, dihydrochloride) | hygroscopicity (in words) ([1]; 25° C., listed as dihydrochloride, dihydrochloride) | moisture held ([1]; 25° C., at a relative humidity of 90%) | relative humidity from which an increase in the weight is observed ([1]; 25° C., dihydrochloride) [%] | relative humidity from which an increase in the weight is observed [1, 3] | stability of the crystal (in words) ([1]; dihydrochloride) | stability of the crystal (in words) ([1]; listed as (R)-2-(2-aminothiazol-4-yl)-4′-[2-[(2-hydroxy-2-phenylethyl)amino]ethyl]-acetani, dihydrochloride) | stability of the crystal (in words) ([1]; listed as dihydrochloride, dihydrochloride) | relative humidity from which an increase in the weight is observed ([1]; 25° C.) | moisture held ([1]; 25° C., relative humidity not stated for the value (measurement range 5 to 95%)) | solubility in a recrystallization solvent [2] | SMILES | hygroscopicity (in words) ([1]; 25° C.) | stability of the crystal (in words) [1] | ED30 value (dose by which the blood glucose level was reduced by 30% as compared with that before the administration) (Male kk mice) |
| --- | --- | --- | --- | --- | --- | --- | --- | --- | --- | --- | --- | --- | --- | --- | --- | --- | --- |
| not more than 0.2% | – | – | – | – | – | – | – | – | – | – | – | – | – | Nc1nc(CC(=O)Nc2ccc(CCNC[C@H](O)c3ccccc3)cc2)cs1 [α-form crystal, (R)-2-(2-aminothiazol-4-yl)-4′-[2-[(2-hydroxy-2-phenylethyl)amino]ethyl]acetanilide] | not exhibiting hygroscopicity; also recorded: does not exhibit hygroscopicity; also recorded: did not exhibit hygroscopicity | stable; also recorded: excellent in stability | not more than 3.5 mg/kg/day |
| – | strongly hygroscopic | strong hygroscopicity | strong hygroscopicity | strong hygroscopicity | about 14% | 80 | about 80% | unstable | unstable | unstable | – | – | – | Nc1nc(CC(=O)Nc2ccc(CCNC[C@H](O)c3ccccc3)cc2)cs1 [dihydrochloride crystal, (R)-2-(2-aminothiazol-4-yl)-4′-[2-[(2-hydroxy-2-phenylethyl)amino]ethyl]-acetanilide dihydrochloride, reference compound] | – | – | – |
| – | – | – | – | – | – | – | – | – | – | – | about 20% | about 3% | high solubility | Nc1nc(CC(=O)Nc2ccc(CCNC[C@H](O)c3ccccc3)cc2)cs1 [β-form crystal, (R)-2-(2-aminothiazol-4-yl)-4′-[2-[(2-hydroxy-2-phenylethyl)amino]ethyl]acetanilide] | weak hygroscopicity | – | – |
